Source: ChEMBL document CHEMBL1156956, “Triazines incorporating (R)-3-methylmorpholine are potent inhibitors of the mammalian target of rapamycin (mTOR) with selectivity over PI3Kalpha” (Bioorg Med Chem Lett, 2010)

Key:
[1] = Growth inhibition of human MDA468 cells after 3 days by MTS assay; assay type: functional, cell-based; details: MDA-MB-468, 72 h
[2] = target: Serine/threonine-protein kinase mTOR (Rattus norvegicus, UniProt P42346); test: Inhibition of rat brain mTOR assessed as p70S6k-GST protein phosphorylation after 30 mins by ELISA
LNCaP = test: Growth inhibition of human LNCAP cells after 3 days by MTS assay; assay type: functional, cell-based; details: 72 h
[3] = target: Phosphatidylinositol 4,5-bisphosphate 3-kinase catalytic subunit alpha isoform (Homo sapiens, UniProt P42336); test: Inhibition of PI3Kalpha assessed as PIP3 accumulation after 24 mins by HTRF assay
Chain of Phosphatidylinositol 4,5-bisphosphate 3-kinase catalytic subunit alpha isoform (P42336 whole entry, canonical isoform): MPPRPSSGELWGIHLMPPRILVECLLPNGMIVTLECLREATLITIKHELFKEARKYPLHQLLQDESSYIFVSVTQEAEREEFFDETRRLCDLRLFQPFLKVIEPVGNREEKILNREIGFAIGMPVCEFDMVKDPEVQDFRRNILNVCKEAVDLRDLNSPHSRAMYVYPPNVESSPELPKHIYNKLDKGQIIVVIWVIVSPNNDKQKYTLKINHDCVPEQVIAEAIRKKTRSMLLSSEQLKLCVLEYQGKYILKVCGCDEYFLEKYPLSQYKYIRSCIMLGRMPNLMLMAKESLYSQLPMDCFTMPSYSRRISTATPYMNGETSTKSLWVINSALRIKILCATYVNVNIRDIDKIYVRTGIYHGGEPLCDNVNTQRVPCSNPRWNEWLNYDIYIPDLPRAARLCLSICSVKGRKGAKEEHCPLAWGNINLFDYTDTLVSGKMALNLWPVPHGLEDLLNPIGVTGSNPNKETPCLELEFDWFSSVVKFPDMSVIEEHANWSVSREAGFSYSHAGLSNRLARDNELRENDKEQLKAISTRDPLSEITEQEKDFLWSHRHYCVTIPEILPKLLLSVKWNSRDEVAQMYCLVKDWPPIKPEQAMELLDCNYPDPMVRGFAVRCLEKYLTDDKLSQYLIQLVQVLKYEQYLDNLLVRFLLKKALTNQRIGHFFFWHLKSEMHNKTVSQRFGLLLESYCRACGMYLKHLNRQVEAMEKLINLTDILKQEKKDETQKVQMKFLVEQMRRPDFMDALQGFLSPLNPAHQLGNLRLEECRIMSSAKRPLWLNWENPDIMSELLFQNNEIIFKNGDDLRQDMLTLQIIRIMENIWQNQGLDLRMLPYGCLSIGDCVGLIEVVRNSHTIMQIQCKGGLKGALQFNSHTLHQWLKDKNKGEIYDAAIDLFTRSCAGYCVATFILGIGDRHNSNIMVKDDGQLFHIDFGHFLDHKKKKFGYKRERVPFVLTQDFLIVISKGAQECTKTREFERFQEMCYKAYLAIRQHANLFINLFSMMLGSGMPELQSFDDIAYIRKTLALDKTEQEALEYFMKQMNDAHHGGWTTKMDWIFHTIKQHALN

SMILES | IC50 [2] [nM] | IC50 (LNCaP) [nM] | IC50 [3] [nM] | IC50 [1] [nM]
C[C@@H]1COCCN1c1nc(-c2ccc(NC(=O)Nc3cccnc3)cc2)nc(N2C[C@@H]3C[C@H]2CO3)n1 | 3.6 | 250 |  | 300
C[C@@H]1COCCN1c1nc(-c2ccc(NC(=O)Nc3ccc(N4CCN(C)CC4)nc3)cc2)nc(N2CCOC[C@H]2C)n1 | 1.7 | 12 |  | 40
C[C@@H]1COCCN1c1nc(-c2ccc(NC(=O)Nc3ccc(N4CCN(C)CC4)cc3)cc2)nc(N2CCOC[C@H]2C)n1 | 1.1 | 3 |  | 10
C[C@@H]1COCCN1c1nc(-c2ccc(NC(=O)Nc3ccc(N4CCC(N(C)C)CC4)cc3)cc2)nc(N2CCOC[C@H]2C)n1 | 1.9 |  |  | 80
C[C@@H]1COCCN1c1nc(-c2ccc(NC(=O)Nc3ccc(C(=O)N4CCN(C)CC4)cc3)cc2)nc(N2CCOC[C@H]2C)n1 | 1.7 | < 0.8 |  | < 0.8
C[C@@H]1COCCN1c1nc(-c2ccc(NC(=O)Nc3ccc(N4CCN(C)CC4)nc3)cc2)nc(C2CCOCC2)n1 |  |  |  | 52
C[C@@H]1COCCN1c1nc(-c2ccc(NC(=O)Nc3ccc(N4CCC(N(C)C)CC4)cc3)cc2)nc(C2CCOCC2)n1 | 1.7 | 16 |  | 38
C[C@@H]1COCCN1c1nc(-c2ccc(NC(=O)Nc3ccc(C(=O)N4CCN(C)CC4)cc3)cc2)nc(C2CCOCC2)n1 | 1 | < 0.8 |  | < 0.8
C[C@@H]1COCCN1c1nc(-c2ccc(NC(=O)Nc3ccc(CN(C)C)cc3)cc2)nc(N2CCOC[C@H]2C)n1 | 2 | 21 |  | 50

Further lines, with some results ahead:

IC50 [2] [nM] | IC50 (LNCaP) [nM] | IC50 [3] [nM] | SMILES | IC50 [1] [nM]
0.2 | 12 |  | C[C@@H]1COCCN1c1nc(-c2ccc(NC(=O)Nc3cccnc3)cc2)nc(N2CCOC[C@H]2C)n1 | 100
0.7 | 8 | 314 | C[C@@H]1COCCN1c1nc(-c2ccc(NC(=O)Nc3ccc(OCCN(C)C)cc3)cc2)nc(N2CCOC[C@H]2C)n1 | 45
0.5 |  | 55 | C[C@@H]1COCCN1c1nc(-c2ccc(NC(=O)Nc3ccc(C(=O)N4CCC(N(C)C)CC4)cc3)cc2)nc(N2CCOC[C@H]2C)n1 | 5
0.5 | < 0.8 |  | C[C@@H]1COCCN1c1nc(-c2ccc(NC(=O)Nc3ccc(C(=O)N(C)C)cc3)cc2)nc(N2CCOC[C@H]2C)n1 | < 0.8
0.7 | 1 |  | C[C@@H]1COCCN1c1nc(-c2ccc(NC(=O)Nc3ccc(N4CCN(C)CC4)cc3)cc2)nc(C2CCOCC2)n1 | 6
0.8 | 2 |  | C[C@@H]1COCCN1c1nc(-c2ccc(NC(=O)Nc3ccc(N4CCNCC4)cc3)cc2)nc(C2CCOCC2)n1 | 9
0.7 | < 0.8 |  | CC(C)N1CCN(C(=O)c2ccc(NC(=O)Nc3ccc(-c4nc(C5CCOCC5)nc(N5CCOC[C@H]5C)n4)cc3)cc2)CC1 | < 0.8
0.6 |  |  | C[C@@H]1COCCN1c1nc(-c2ccc(NC(=O)Nc3cccnc3)cc2)nc(C2CCOCC2)n1 | 80
0.2 |  |  | C[C@@H]1COCCN1c1nc(-c2ccc(NC(=O)Nc3ccncc3)cc2)nc(N2CCOC[C@H]2C)n1 | 40
